Reference: PMC6657216, “Defining the Contribution of CYP1A1 and CYP1A2 to Drug Metabolism Using Humanized CYP1A1/1A2 and Cyp1a1/Cyp1a2 Knockout Mice” (Drug Metabolism and Disposition, 2019)
Where “and” joins values, the source holds several entries; their conditions need not be identical. Identical values can stand only once. Like-named read-outs stand apart in the source and are kept apart here. Marks after values point to notes of the source that are not given here.

What was measured:
[1] = Caffeine systemic clearance from published mouse studies; assay type: in vivo
[2] = for CYP1A2 Contribution: 5 mg/kg PO, This study; for AUCinf(obs) (% mean of C57BL/6J ± %S.D.) / CL/F(obs) (% mean of C57BL/6J ± %S.D.) / Cmax (% mean of C57BL/6J ± %S.D.) / V/F(obs) (% mean of C57BL/6J ± %S.D.) / V/F(obs): 5 mg/kg oral; for V/F(obs): mean ± S.D., n = 4
Description: (§2) A separate experimental group consisted of mice with conditionally deleted hepatic P450 oxidoreductase ([Henderson et al., 2003]) [hepatic reductase null (HRN) mice]. Whole blood samples from WT and hCYP1A1/1A2 mice were collected at 12, 24, and 40 minutes and 1, 2, 3, 4, 6, and 8 hours after the administration. Whole blood samples from HRN and Cyp1a1/1a2 KO mice were collected at 12, 24, and 40 minutes and 1, 3, 6, 8, 12, and 24 hours postadministration. The collected whole blood samples (10 μl) were mixed with an equal volume of heparin solution in water (15 U/ml), frozen in liquid nitrogen, and stored at −70°C. […] The supernatant was collected, and the centrifugation step was repeated.
(§3) Pharmacokinetic parameters were calculated using Phoenix WinNonlin version 6.4 (Certara, St. Louis, MO).

CYP1A2 = system: CYP1A2; parameters: method as in Culm-Merdek et al., 2005; conditions: healthy subjects; interaction with fluvoxamine; ref Culm-Merdek et al., 2005; cited from earlier work
in vivo = conditions: whole blood, po, 5 mg/kg
Description: as §2, §3

[3] = cited from earlier work
[4] = Microsomal stability in mouse liver microsomes (WT, Cyp1a KO, hCYP1A1/1A2)
Description: (§1) The reaction was started by addition of 200 μl of NADPH to the remaining mixture of ramelteon with microsomes, and 100-μl aliquots were taken at 1, 2, 5, 10, 15, 20, and 30 minutes after the reaction start; mixed with an equal volume of ice-cold methanol containing the internal standard; incubated on ice for at least 20 minutes; and centrifuged for 15 minutes at 16,000 rcf and +4°C on Centrifuge 5415 R (Eppendorf, Hamburg, Germany). Control incubations were carried out without the cofactor or microsomes. The concentration of ramelteon in the supernatant was measured by high-performance liquid chromatography–tandem mass spectrometry (MS/MS). Chromatographic separation was performed on a Prodigy Phenyl-3 column (5 μm, 50 × 2.0 mm; Phenomenex) using an injection volume of 10 μl and a run time of 7 minutes. Mobile phase consisted of 0.1% solutions of formic acid in water (solvent A) and acetonitrile (solvent B). For elution, a linear gradient from 20% to 60% of solvent B in 4 minutes was used, followed by 3-minute equilibration at 20% B. The multiple reaction monitoring parameters for ramelteon and tacrine were 260.28, 199.2 (precursor ion) and 204.21, 171.11 (product ion), respectively. The concentrations of ramelteon were calculated from the calibration curve.

[5] = Microsomal stability in pooled human liver microsomes
Description: as §1

[6] = HRN (hepatic reductase null), mouse

For Cn1c(=O)c2c(ncn2C)n(C)c1=O [caffeine], which “CYP1A2 Contribution” value ([1]; C57BL/6J mice, 5 mg/kg PO, against Cyp1a KO clearance, clearance from ref Li et al., 2017) is on record?
The value was 39%.

And the “CYP1A2 Contribution” value ([1]; C57BL/6J mice, 5 mg/kg PO, against Cyp1a KO clearance, clearance from ref Scheer et al., 2014)?
The value was 61%.

What about the “CYP1A2 Contribution” value ([1]; C57BL/6N mice, 2 mg/kg i.p., calculated against CYP1A2^−/− clearance, clearance from ref Buters et al., 1996) of the same molecule?
Its value is 88%.

And the “CYP1A2 Contribution” value ([1]; CD-1 mice, 20 mg/kg i.p., against Cyp1a KO clearance, clearance from ref Kaplan et al., 1990)?
The value was 55%.

And the “CYP1A2 Contribution” value ([1]; CD-1 mice, 40 mg/kg i.p., against Cyp1a KO clearance, clearance from ref Kaplan et al., 1990)?
The value was 25%.

What about the “CYP1A2 Contribution” value ([1]; CD-COBS mice, 1 mg/kg i.v., against Cyp1a KO clearance, clearance from ref Walton et al., 2001) of the same molecule?
Its value is 61%.

And the “CYP1A2 Contribution” value ([1]; CYP1A2^−/− mice, 2 mg/kg i.p., clearance from ref Buters et al., 1996)?
Its value is 0%.

What about the “CYP1A2 Contribution” value ([1]; Swiss mice, 20 mg/kg PO, against Cyp1a KO clearance, clearance from ref Samojlik et al., 2016) of the same molecule?
Its value is 8%.

What about the “CYP1A2 Contribution” value ([1]; Swiss mice, 20 mg/kg i.p., against Cyp1a KO clearance, clearance from ref Samojlik et al., 2016) of the same molecule?
Its value is 28%.

And the “CYP1A2 Contribution” value ([2]; C57BL/6J (WT) mice, against Cyp1a KO clearance)?
The value was 68%.

What about the “AUCinf(obs) (% mean of C57BL/6J ± %S.D.)” value ([2]; C57BL/6J mice) of the same molecule?
The value was 100 ± 22%.

And the “CL/F(obs) (% mean of C57BL/6J ± %S.D.)” value ([2]; C57BL/6J mice)?
The value was 100 ± 19%.

And the “Cmax (% mean of C57BL/6J ± %S.D.)” value ([2]; C57BL/6J mice)?
The value was 100 ± 26%.

What about the “V/F(obs) (% mean of C57BL/6J ± %S.D.)” value ([2]; C57BL/6J mice) of the same molecule?
Its value is 100 ± 39%.

What about the “V/F(obs)” value ([2]; C57BL/6J mice) of the same molecule?
Its value is 1.253 ± 0.494 L/kg.

What about the “increase of AUC compared with WT mice” value ([2]; Cyp1a KO mice) of the same molecule?
The value was about 3.1 fold.

What about the “increase of elimination half-life compared with WT” value (from here on “increase of elimination half-life”) ([2]; Cyp1a KO mice) of the same molecule?
The value was about 2.5 fold.

What about the “CYP1A2 Contribution” value ([2]; Cyp1a KO mice) of the same molecule?
Its value is 0%.

And the “AUCinf(obs) (% mean of C57BL/6J ± %S.D.)” value ([2]; Cyp1a KO mice)?
Its value is 309 ± 36%.

What about the “Cmax (% mean of C57BL/6J ± %S.D.)” value ([2]; Cyp1a KO mice) of the same molecule?
Its value is 167 ± 20%.

What about the “V/F(obs) (% mean of C57BL/6J ± %S.D.)” value ([2]; Cyp1a KO mice) of the same molecule?
The value was 79 ± 15%.

And the “CL/F(obs) (% mean of C57BL/6J ± %S.D.)” value ([2]; Cyp1a KO mice, 5 mg/kg)?
Its value is 32% and 32 ± 4%.

What about the “V/F(obs)” value ([2]; Cyp1a KO mice) of the same molecule?
The value was 0.992 ± 0.188 L/kg.

And the “increase of AUC compared with WT mice” value ([2]; HRN mice)?
The value was about 10 fold.

And the “increase of elimination half-life” value ([2]; HRN mice)?
The value was about 8.9 fold.

What about the “AUCinf(obs) (% mean of C57BL/6J ± %S.D.)” value ([2]; HRN mice) of the same molecule?
Its value is 1004 ± 45%.

And the “Cmax (% mean of C57BL/6J ± %S.D.)” value ([2]; HRN mice)?
Its value is 157 ± 33%.

And the “V/F(obs) (% mean of C57BL/6J ± %S.D.)” value ([2]; HRN mice)?
Its value is 84 ± 7%.

What about the “CL/F(obs) (% mean of C57BL/6J ± %S.D.)” value ([2]; HRN mice, 5 mg/kg) of the same molecule?
Its value is 9.7 ± 0.42%.

What about the “V/F(obs)” value ([2]; HRN mice) of the same molecule?
The value was 1.057 ± 0.082 L/kg.

What about the “increase of AUC compared with WT mice” value ([2]; hCYP1A1/1A2 mice) of the same molecule?
The value was about 1.5 fold.

And the “CYP1A2 Contribution” value ([2]; hCYP1A1/1A2 mice, against Cyp1a KO clearance)?
Its value is 53%.

And the “AUCinf(obs) (% mean of C57BL/6J ± %S.D.)” value ([2]; hCYP1A1/1A2 mice)?
Its value is 147 ± 32%.

What about the “Cmax (% mean of C57BL/6J ± %S.D.)” value ([2]; hCYP1A1/1A2 mice) of the same molecule?
Its value is 129 ± 8%.

And the “V/F(obs) (% mean of C57BL/6J ± %S.D.)” value ([2]; hCYP1A1/1A2 mice)?
Its value is 89 ± 4%.

And the “CL/F(obs) (% mean of C57BL/6J ± %S.D.)” value ([2]; hCYP1A1/1A2 mice, 5 mg/kg)?
Its value is 68% and 68 ± 13%.

What about the “V/F(obs)” value ([2]; hCYP1A1/1A2 mice) of the same molecule?
Its value is 1.111 ± 0.055 L/kg.

And the “increase of elimination half-life” value ([2]; hCYP1A1/1A2 mice, not statistically significant)?
Its value is about 1.4 fold.

What about the “contribution of CYP1A2 to caffeine metabolism” value (CYP1A2) of the same molecule?
Its value is 93%.

What about the AUC(0-inf) (in vivo; C57BL/6J, mouse) of the same molecule?
Its AUC(0-inf) is 5700 ± 1260 ng·h/mL.

And the CL/F (in vivo; C57BL/6J, mouse)?
Its CL/F is 15.1 mL/min/kg.

And the Cmax (in vivo; C57BL/6J, mouse)?
The Cmax was 2380 ± 628 ng/mL.

And the half-life (in vivo; C57BL/6J, mouse)?
Its half-life is 0.94 ± 0.25 h.

And the AUC(0-inf) (in vivo; Cyp1a KO, mouse)?
The AUC(0-inf) was 17700 ± 2070 ng·h/mL.

What about the CL/F (in vivo; Cyp1a KO, mouse) of the same molecule?
Its CL/F is 4.77 mL/min/kg.

What about the Cmax (in vivo; Cyp1a KO, mouse) of the same molecule?
Its Cmax is 3990 ± 472 ng/mL.

And the half-life (in vivo; Cyp1a KO, mouse)?
The half-life was 2.39 ± 0.2 h.

What about the AUC(0-inf) (in vivo; [6]) of the same molecule?
Its AUC(0-inf) is 57300 ng·h/mL.

And the CL/F (in vivo; [6])?
The CL/F was 1.45 mL/min/kg.

What about the Cmax (in vivo; [6]) of the same molecule?
Its Cmax is 3740 ± 794 ng/mL.

What about the half-life (in vivo; [6]) of the same molecule?
The half-life was 8.4 ± 0.8 h.

And the AUC(0-inf) (in vivo; hCYP1A1/1A2, mouse)?
Its AUC(0-inf) is 8400 ± 1800 ng·h/mL.

And the CL/F (in vivo; hCYP1A1/1A2, mouse)?
Its CL/F is 10.2 mL/min/kg.

And the Cmax (in vivo; hCYP1A1/1A2, mouse)?
The Cmax was 3080 ± 194 ng/mL.

What about the half-life (in vivo; hCYP1A1/1A2, mouse) of the same molecule?
The half-life was 1.3 ± 0.33 h.

What about the Clearance ([3]; C57BL/6J mice, 5 mg/kg PO, calculated from the mean pharmacokinetic profile in Fig. 2 of the publication, ref Li et al., 2017) of the same molecule?
Its Clearance is 472^a ml/(h*kg).

And the Clearance ([3]; C57BL/6J mice, 5 mg/kg PO, ref Scheer et al., 2014)?
The Clearance was 726 mL/h/kg.

What about the Clearance ([3]; C57BL/6N mice, 2 mg/kg i.p., ref Buters et al., 1996) of the same molecule?
The Clearance was 2268 mL/h/kg.

And the Clearance ([3]; CD-1 mice, 20 mg/kg i.p., ref Kaplan et al., 1990)?
Its Clearance is 640 mL/h/kg.

And the Clearance ([3]; CD-1 mice, 40 mg/kg i.p., ref Kaplan et al., 1990)?
Its Clearance is 380 mL/h/kg.

What about the Clearance ([3]; CD-COBS mice, 1 mg/kg i.v., ref Walton et al., 2001) of the same molecule?
Its Clearance is 732 mL/h/kg.

And the Clearance ([3]; Swiss mice, 20 mg/kg PO, calculated by dividing dose by AUCinf, ref Samojlik et al., 2016)?
The Clearance was 311^b ml/(h*kg).

And the Clearance ([3]; Swiss mice, 20 mg/kg i.p., calculated by dividing dose by AUCinf, ref Samojlik et al., 2016)?
The Clearance was 398^b ml/(h*kg).

What does the source list for CCC(=O)NCC[C@@H]1CCc2ccc3c(c21)CCO3 [ramelteon]?
in vitro clearance relative to WT ([4]; Cyp1a KO mouse liver microsomes): ~83%; contribution of mouse Cyp1a2 to clearance ([4]; WT liver microsomes): 17%; fraction metabolized by Cyp1a2 ([4]; WT mice liver microsomes, eqs. 15 and 16): ~0.17; fraction metabolized by CYP1A2 ([4]; hCYP1A1/1A2 mice liver microsomes, eqs. 15 and 16): 0.56; in vitro clearance relative to WT ([4]; hCYP1A1/1A2 mouse liver microsomes): ~190%; contribution of CYP1A2 to clearance ([4]; liver microsomes of hCYP1A1/1A2 mice): 56%; in vitro clearance relative to WT [5]: ~70%
